Data set [1] in a line: Thioflavin T fibril formation assay of purified peptides. Format: physicochemical. Also on record: key: Amyloid fibril formation detected by an increase in ThT fluorescence was denoted with "Yes"; samples without increasing ThT fluorescence hence not forming amyloid fibrils were denoted "No". The method in brief:
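Compounds at 200 µM in 50 mM phosphate buffer at the stated pH values, or at 200 µM in semaglutide drug product adjusted to pH 7.4, with 4 µM ThT final. Fibrillation followed as ThT fluorescence (ex 450/em 480 nm) over 96 h at 40°C, with 5 min shaking at 700 rpm alternating with 5 min rest; triplicates.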

For the next data set, the target named is T1, hCRHR2 (Homo sapiens, UniProt Q13324).
T1 sequence (Q13324 1-411): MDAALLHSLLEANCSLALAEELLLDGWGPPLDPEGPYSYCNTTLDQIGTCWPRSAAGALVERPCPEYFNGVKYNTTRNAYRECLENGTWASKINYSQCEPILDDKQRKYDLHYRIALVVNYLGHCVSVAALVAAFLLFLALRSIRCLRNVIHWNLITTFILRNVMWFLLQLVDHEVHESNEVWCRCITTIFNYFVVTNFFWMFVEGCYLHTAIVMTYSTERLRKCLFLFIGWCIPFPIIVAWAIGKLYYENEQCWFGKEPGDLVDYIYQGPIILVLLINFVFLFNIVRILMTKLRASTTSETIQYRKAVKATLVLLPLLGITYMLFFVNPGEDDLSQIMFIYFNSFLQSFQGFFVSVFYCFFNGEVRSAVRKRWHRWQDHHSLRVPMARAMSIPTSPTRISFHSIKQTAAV
The data set can be described thus: HTRF cAMP assay, determination of hCRHR2 potency (peptide libraries 5 conc., purified peptides 11 conc.). Format: cell-based. The method in brief:
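Potency was read as cAMP accumulation in a stable CHO-K1 line expressing human CRHR2, used in suspension right after thawing. Detection relied on energy transfer from antibody-bound cryptate to d2-cAMP.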
Background: TR-FRET usually uses a lanthanide donor and a delayed reading to cut background.

Data set [2] in a line: Chemical stability of purified peptides (RP-UHPLC main peak purity loss). Type of data set: physicochemical. Particulars: for Chemical stability at pH 7.5 after 28 days at 40°C (% degradation): pH 7.5, 28 days. The procedure: Chemical stability was tested at a concentration of approximately of 1.0 mg/ml peptide in the following vehicles: 50 mM phosphate buffer pH 7.5. Dissolved samples were incubated for at least 2 h at room temperature on a rocking table. The main peak purity at time zero (T0) was determined using reversed phase chromatography. The samples were incubated at 40°C for 14 days (T14) and 28 days (T28). The samples were analyzed with reversed phase chromatography and size exclusion chromatography.
Reversed Phase chromatography was performed on a Thermo Dionex Ultimate UHPLC system with UV detection at 215 nm) and equipped with a Kinetex column (1.7 µm, C8, 100 Å, 150 x 2.1 mm (00F-4499-AN)). Analysis was performed by gradient elution with buffer A (0.1% TFA in 95:5 H2O:acetonitrile) and buffer B (0.1% TFA in 5:95 H2O: acetonitrile) at a column temperature of 50 °C (gradient used 25-55%B over 40 min. Flowrate was 0.5 mL/min. The main peak purity was determined from the integrated chromatogram as the area under the main peak relative to the total peak area. The purity loss was calculated as the difference between the T0 and T14 time point and/or as the difference between the T0 and T28 time point.
The chemical stability of selected peptides was evaluated at varying pH's at 40° C over 28 days. Samples were prepared and analysed as described in procedure with the addition of pH adjusting samples to the targets indicated below. As a comparator,r commercially available semaglutide drug product (Ozempic®, Novo Nordisk) was included in the sample set.

For data set [3] the following is noted: pH 7.5.
Another data set addresses T2, hCRHR1 (Homo sapiens, UniProt P34998).
T2 sequence (P34998 24-415): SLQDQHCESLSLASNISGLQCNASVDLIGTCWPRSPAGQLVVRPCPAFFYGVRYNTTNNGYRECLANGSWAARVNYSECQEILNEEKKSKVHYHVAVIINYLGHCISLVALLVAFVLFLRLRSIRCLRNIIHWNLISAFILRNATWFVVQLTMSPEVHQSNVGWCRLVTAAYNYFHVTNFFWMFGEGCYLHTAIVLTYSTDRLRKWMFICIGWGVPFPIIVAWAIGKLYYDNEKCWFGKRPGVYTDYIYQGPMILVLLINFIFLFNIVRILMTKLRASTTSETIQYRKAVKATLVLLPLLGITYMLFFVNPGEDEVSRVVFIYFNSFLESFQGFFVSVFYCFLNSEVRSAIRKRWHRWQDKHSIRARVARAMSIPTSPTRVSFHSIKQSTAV
The data set can be described thus: HTRF cAMP assay, determination of hCRHR1 potency (peptide libraries 5 conc., purified peptides 11 conc.). Type of data set: cell-based. In short, it runs like this: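 CHO-K1 cells stably expressing human CRHR1, thawed from frozen stocks just before use, were stimulated in suspension with agonist peptides. cAMP was measured by HTRF competitive immunoassay (cryptate anti-cAMP antibody vs d2-cAMP).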

The mark [4] stands for this setting: Table 5, purified peptides, read-out: hCRHR2 EC50.
The mark [5] stands for this setting: Table 5, purified peptides, read-out: hCRHR1 EC50.

The structures appear in SMILES notation. Like-named read-outs stand apart in the source and are kept apart here. Starred links: 1 amine or outer side, 2 acyl side, 3 side chain; linkers in the order of their positions; H or OH if unused. Non-standard residues stand in square brackets, D forms with d. Residues, ends and D or L forms follow the SMILES beside them. Groups on a side chain read outwards from the residue. *: point of attachment. C20 diacid = O=C(O)CCCCCCCCCCCCCCCCCCC(=O)*; γGlu = O=C(O)[C@H](CCC(=O)[*:2])N[*:1]; NMeI = CC[C@H](C)[C@H](NC)C(=O)O; Nle = CCCC[C@H](N)C(=O)O; AEEA = NCCOCCOCC(=O)O; Aib = CC(C)(N)C(=O)O Some results are limits rather than exact numbers.

Results on three molecules are retold here after EP4810052A2, “HCRHR2 SELECTIVE POLYPEPTIDES” (Gubra A/S, priority 2023, dated 2026).

Turning to `CCCC[C@H](NC(=O)[C@@H](NC(=O)[C@H](CCC(=O)O)NC(=O)[C@H](C)NC(=O)[C@H](CC(N)=O)NC(=O)[C@@H](NC(=O)[C@H](CCCCNC(=O)COCCOCCNC(=O)COCCOCCNC(=O)CC[C@H](NC(=O)CC[C@H](NC(=O)CCCCCCCCCCCCCCCCCCC(=O)O)C(=O)O)C(=O)O)NC(=O)[C@H](C)NC(=O)[C@H](CCC(N)=O)NC(=O)[C@H](CCC(=O)O)NC(=O)[C@H](CCCNC(=N)N)NC(=O)[C@H](C)NC(=O)[C@H](C)NC(=O)[C@H](CCCNC(=N)N)NC(=O)[C@H](C)NC(=O)[C@H](CCCNC(=N)N)NC(=O)[C@H](C)NC(=O)[C@H](CCC(N)=O)NC(=O)[C@H](CCC(=O)O)NC(=O)[C@H](CC(C)C)NC(=O)[C@H](CC(C)C)NC(=O)[C@@H](NC(=O)[C@H](CCC(N)=O)NC(=O)[C@H](CC(C)C)NC(=O)[C@H](CC(C)C)NC(=O)CNC(=O)[C@@H](NC(=O)[C@@H]1CCCN1C(=O)[C@@H](NC(=O)[C@H](CC(=O)O)NC(=O)[C@H](CC(C)C)NC(=O)[C@H](CO)NC(=O)[C@H](CC(C)C)NC(=O)[C@@H](NC(=O)[C@@H](N)[C@@H](C)CC)C(C)C)C(C)C)[C@@H](C)CC)[C@@H](C)CC)[C@@H](C)O)[C@@H](C)CC)C(=O)N[C@@H](C)C(=O)N[C@@H](CCC(=O)O)C(=O)N[C@H](C(N)=O)[C@@H](C)CC` [compound 69] (H-IVLSLDVPIGLLQILLEQARARAAREQAK([AEEA-AEEA-γGlu-γGlu-C20 diacid])TNAEI[Nle]AEI-NH2), the “Fibrillation (pH 7.5)” value in data set [1] (pH 7.5) was “No”. In addition, the “Selectivity ratio (hCRHR1/ hCRHR2)” value at hCRHR2 (Table 5) is on record as above 9259. For the same molecule, the EC50 on hCRHR2 (setting [4]) was 0.54 nM; on hCRHR2 (library peptides, matched molecular pairs L vs Nle in position X^38, read-out: Potency hCRHR2 pEC50 (converted)), 0.2 nM; on hCRHR1 (setting [5]), above 5000 nM; on hCRHR1 (library peptides, matched molecular pairs L vs Nle in position X^38, read-out: Potency hCRHR1 pEC50 (converted)), 3980 nM. Moreover, the “Chemical stability at pH 7.5 after 14 days at 40°C (% degradation)” value in data set [2] (pH 7.5, 14 days, 40°C) is given as -0.5%. Also, the “Chemical stability at pH 7.5 after 28 days at 40°C (% degradation)” value in data set [2] (40°C) was -8.8%. For the same molecule, the “Solubility pH 7.5, target conc. =10 mg/mL (measured mg/mL)” value in data set [3] worked out at 10 mg/mL.
In the case of `CCCC[C@H](NC(=O)[C@@H](NC(=O)[C@H](CCC(=O)O)NC(=O)C(C)(C)NC(=O)[C@H](CC(N)=O)NC(=O)[C@@H](NC(=O)[C@H](CCCCNC(=O)COCCOCCNC(=O)COCCOCCNC(=O)CC[C@H](NC(=O)CC[C@H](NC(=O)CCCCCCCCCCCCCCCCCCC(=O)O)C(=O)O)C(=O)O)NC(=O)[C@H](C)NC(=O)[C@H](CCC(N)=O)NC(=O)[C@H](CCC(=O)O)NC(=O)[C@H](CCCNC(=N)N)NC(=O)[C@H](C)NC(=O)[C@H](C)NC(=O)[C@H](CCCNC(=N)N)NC(=O)[C@H](C)NC(=O)[C@H](CCCNC(=N)N)NC(=O)[C@H](C)NC(=O)[C@H](CCC(N)=O)NC(=O)[C@H](CCC(=O)O)NC(=O)[C@H](CC(C)C)NC(=O)[C@H](CC(C)C)NC(=O)[C@@H](NC(=O)[C@H](CCC(N)=O)NC(=O)[C@H](CC(C)C)NC(=O)[C@H](CC(C)C)NC(=O)CNC(=O)[C@@H](NC(=O)[C@@H]1CCCN1C(=O)[C@@H](NC(=O)[C@H](CC(=O)O)NC(=O)[C@H](CC(C)C)NC(=O)[C@H](CO)NC(=O)[C@H](CC(C)C)NC(=O)[C@@H](NC(=O)[C@@H](N)[C@@H](C)CC)C(C)C)C(C)C)[C@@H](C)CC)[C@@H](C)CC)[C@@H](C)O)[C@@H](C)CC)C(=O)N[C@@H](C)C(=O)N[C@@H](CCC(=O)O)C(=O)N[C@H](C(N)=O)[C@@H](C)CC` [compound 100] (H-IVLSLDVPIGLLQILLEQARARAAREQAK([AEEA-AEEA-γGlu-γGlu-C20 diacid])TN[Aib]EI[Nle]AEI-NH2), the “Fibrillation (pH 7.5)” value in data set [1] (pH 7.5) is “No”. Further, at hCRHR2 (Table 5), the “Selectivity ratio (hCRHR1/ hCRHR2)” value is recorded as above 6494. Besides, the EC50 is 0.77 nM on hCRHR2 (setting [4]) and above 5000 nM on hCRHR1 (setting [5]). For the same molecule, the “Chemical stability at pH 7.5 after 14 days at 40°C (% degradation)” value in data set [2] (pH 7.5, 14 days, 40°C) is listed as -0.43%. Further, in data set [2] (40°C), the “Chemical stability at pH 7.5 after 28 days at 40°C (% degradation)” value is reported as -0.8%. In data set [3], the “Solubility pH 7.5, target conc. =10 mg/mL (measured mg/mL)” value is reported as 11 mg/mL.
For `CC[C@H](C)[C@H](NC)C(=O)N[C@H](C(=O)N[C@@H](CC(C)C)C(=O)N[C@@H](CO)C(=O)N[C@@H](CC(C)C)C(=O)N[C@@H](CC(=O)O)C(=O)N[C@H](C(=O)N1CCC[C@H]1C(=O)N[C@H](C(=O)NCC(=O)N[C@@H](CC(C)C)C(=O)N[C@@H](CC(C)C)C(=O)N[C@@H](CCC(N)=O)C(=O)N[C@H](C(=O)N[C@@H](CC(C)C)C(=O)N[C@@H](CC(C)C)C(=O)N[C@@H](CCC(=O)O)C(=O)N[C@@H](CCC(N)=O)C(=O)N[C@@H](C)C(=O)N[C@@H](CCCNC(=N)N)C(=O)N[C@@H](C)C(=O)N[C@@H](CCCNC(=N)N)C(=O)N[C@@H](C)C(=O)N[C@@H](C)C(=O)N[C@@H](CCCNC(=N)N)C(=O)N[C@@H](CCC(=O)O)C(=O)N[C@@H](CCC(N)=O)C(=O)N[C@@H](C)C(=O)N[C@@H](CCCCNC(=O)COCCOCCNC(=O)COCCOCCNC(=O)CC[C@H](NC(=O)CC[C@H](NC(=O)CCCCCCCCCCCCCCCCCCC(=O)O)C(=O)O)C(=O)O)C(=O)NC(C)(C)C(=O)N[C@@H](CC(N)=O)C(=O)N[C@@H](C)C(=O)N[C@@H](CCC(=O)O)C(=O)N[C@H](C(=O)N[C@@H](CC(C)C)C(=O)N[C@@H](C)C(=O)N[C@@H](CCC(=O)O)C(=O)N[C@H](C(N)=O)C(C)C)[C@@H](C)CC)[C@@H](C)CC)[C@@H](C)CC)C(C)C)C(C)C` [SEQ ID NO: 20] (H-[NMeI]VLSLDVPIGLLQILLEQARARAAREQAK([AEEA-AEEA-γGlu-γGlu-C20 diacid])[Aib]NAEILAEV-NH2), in data set [1] (pH 7.5, ThT assay), the “Fibrillation (pH 7.5)” value is “No”. For the same molecule, the “Selectivity ratio (hCRHR1/ hCRHR2)” value on hCRHR2 (hCRHR1-EC50/hCRHR2-EC50) is reported as above 4167. Also, the EC50 at hCRHR2 (purified peptides, CHO-K1 cells stably expressing hCRHR2, cAMP HTRF, read-out: hCRHR2 EC50) is 1.2 nM; on hCRHR1 (purified peptides, CHO-K1 cells stably expressing hCRHR1, cAMP HTRF, read-out: hCRHR1 EC50) it was above 5000 nM. The “Chemical stability at pH 7.5 after 14 days at 40°C (% degradation)” value in data set [2] (pH 7.5, 40°C, 14 days, first value of cell) is reported as -1.4 / ND %. The “Solubility pH 7.5, target conc. =10 mg/mL (measured mg/mL)” value in data set [3] came to 10 mg/mL.
